According to patent US11077090B2, “Compounds and compositions and uses thereof” (Sunovion Pharmaceuticals Inc., priority 2016, dated 2021):

How the values were obtained:
Format in all cases: in vivo
[1] = tested on: Male C57Bl/6J mice; assay: Prepulse inhibition of startle (PPI); design: key: −: No change in PPI; +: Significant increase in PPI at one pre-pulse intensity (P < 0.05 vs vehicle); ++: Significant increase in PPI at two pre-pulse intensities (P < 0.05 vs vehicle); +++: Significant increase in PPI at three pre-pulse intensities (P < 0.05 vs vehicle); settings: 3 mg/kg PO
Text: The acoustic startle is an unconditioned reflex response to an external auditory stimulus. Prepulse inhibition of startle (PPI) refers to the reduction in the startle response caused by the presentation of a low-intensity auditory stimulus prior to the startle stimulus. The PPI paradigm is used for the study of schizophrenia and antipsychotic action due to the similarities between the results from human and rodent studies. PPI has been used as a tool for the assessment of deficiencies in sensory-motor gating observed in schizophrenia and to screen for potential antipsychotic drugs. Various psychotomimetic drugs, such as phencyclidine (PCP), can disrupt PPI. In mice, antipsychotic drugs such as haloperidol can increase PPI and clozapine can reverse the disruption of PPI induced by PCP.
Male C57Bl/6J mice from Jackson Laboratories were placed in the PPI chambers (Med Associates) for a 5 min session of white noise (70 dB) habituation. After the habituation period, the test session was initiated. The session started with a habituation block of 6 presentations of the startle stimulus alone, followed by 10 PPI blocks, each of which consisted of 6 different types of trials. Trial types were: ‘null’ (no stimuli), ‘startle’ (120 dB), ‘startle plus prepulse’ (4, 8, and 12 dB over background noise, i.e., 74, 78, or 82 dB) and ‘prepulse’ (82 dB). Trial types were presented in a random order within each block. Each trial started with a 50 ms stimulus-free period during which baseline movements were recorded. This was followed by a subsequent 20 ms period during which the prepulse stimulus was presented and responses to the prepulse measured. After a further 100 ms period, the startle stimulus was presented for 40 ms and responses recorded for 100 ms from startle onset. Responses were sampled every ms. The inter-trial interval was variable with an average of 15 s (range from 10 to 20 s). In ‘startle’ trials, the basic auditory startle response was measured. The basic startle response was calculated as the mean startle response of all ‘startle’ trials (i.e., excluding the first habituation block). In ‘startle plus prepulse’ trials, the degree of inhibition of the normal startle was calculated and expressed as a percentage of the basic startle response.
Mice were treated with vehicle or test compound orally by gavage, or haloperidol (1 mg/kg, i.p.), in 10 mL/kg injection volumes, 30 min prior to PPI test. The PPI enclosures were cleaned following each test. An increase in the percent PPI relative to the vehicle condition indicates an antipsychotic drug-like response.

[2] = tested on: Male C57Bl/6J mice; assay: Amphetamine induced hyperlocomotion assay; design: key: #: Significant increase in total distance traveled (P < 0.05 vs vehicle + AMPH group); −: No change in total distance traveled; Significant decrease in total distance traveled (P < 0.05 vs vehicle + AMPH group); settings: 3 mg/kg PO Compound + AMPH
Protocol: Psychostimulants such as amphetamine (AMPH) are frequently used to induce or mimic a manic-like or psychotic-like state. AMPH administration to rodents increases horizontal locomotion, vertical rearing and repetitive stereotyped behaviors, and typical antipsychotic drugs, such as haloperidol, can reduce these behaviors. The antimanic/antipsychotic-like effects of test compounds were evaluated in male C57Bl/6J mice from Jackson Laboratories Mice were acclimatized to the experimental room for at least 1 hour prior to testing. The mice (n=10 per group) were administered vehicle or test compound orally by gavage (10 mL/kg injection volume) and placed individually in the novel open field (OF) chambers (Med Associates) for 30 minutes of baseline activity measurement. Mice were then injected with either water or AMPH (4 mg/kg, i.p., 10 mL/kg) and placed back in the same individual OF chambers for a 60-minute testing session during which the effects of test compounds on stimulant-induced behaviors (total distance traveled, rearing and stereotypy) were measured. A reduction in total distance traveled relative to the vehicle+AMPH condition indicates an antimanic/antipsychotic drug-like response.

[3] = tested on: Male C57Bl/6J mice; assay: Marble burying test; design: key: −: No reduction in number of marbles buried; +: Significant reduction in number of marbles buried (P < 0.05 vs vehicle)
Protocol: The marble burying assay is used to evaluate the anxiolytic activity of a test compound. After placement in a novel cage containing glass marbles, mice will bury the marbles. Acute administration of anxiolytic agents, as well as antidepressants, decrease this activity at non-sedating doses. Male C57Bl/6J mice from Jackson Laboratories were used in this study and were acclimatized to the experimental room for at least 1 hour prior to testing. Mice (n=10 per group) were administered sterile water or test compound intraperitoneally (i.p.) or orally by gavage (p.o.), or the positive control chlordiazepoxide (15 mg/kg, i.p.), in 10 mL/kg injection volumes, and returned to their home cages for a 30-minute pretreatment period. The mice were then placed individually in clean cages, containing hard wood bedding and twenty black marbles placed in spaced rows of 4×5. After a 30-minute test session, the number of buried marbles was counted. A marble was considered buried if it was pushed at least two thirds into the bedding. Locomotor activity was monitored by measuring the distance traveled using an overhead camera and Video Tracker Software (ViewPoint Life Sciences Software, France). A reduction in the number of marbles buried relative to the vehicle condition indicates an anxiolytic drug-like effect.

[4] = tested on: Adult male AJ mice; assay: Tail suspension test (TST); design: key: −: No decrease in Mean Total Time Immobile; +: Significant decrease in Mean Total Time Immobile (P < 0.05 vs vehicle); settings: 3 mg/kg PO
Text: The tail suspension test (TST) is a rodent screening test for potential (human) antidepressant drugs. It is based on the assumption that an animal will actively try to escape an aversive (stressful) stimulus. If escape is impossible, the animal will eventually stop trying (“give up”). In the TST, a mouse is suspended by the tail so that its body dangles in the air, head downward. Mice initially struggle to face upward and climb to a solid surface. When the animal stops struggling and hangs immobile it is considered to have “given up”. Shorter periods of immobility are characteristic of antidepressant-like activity. Accordingly, longer periods of immobility are considered indicative of a depressive-like state. It has been shown that treatment with an antidepressant drug will decrease the time the animal spends immobile. See generally L. Steru et al., Psychopharmacology (Berl). 1985; 85(3):367-70; B. Thierry et al., Psychopharmacology 1986; 90:284-85.
Adult male AJ mice from Jackson Laboratories received vehicle (sterile water) or test compound orally by gavage, or the positive control desipramine (20 mg/kg, i.p.), in 10 mL/kg injection volumes, 30 min before being subjected to the Tail Suspension Test. In this test, mice are placed in the Tail Suspension chambers (white polyvinylchloride cubicles measuring 33×33×31.75 cm Med Associates, Inc. St. Albans, Vt.) by a piece of transparent (Scotch®) tape attached to the tail, from about the mid-tail, with approximately 2 cm of tape past the end of the tail for 10 min during which the time spent immobile is measured. A reduction in total time immobile relative to the vehicle condition indicates an antidepressant drug-like response.

[5] = tested on: compound-treated mice; assay: Neuropharmacological assay (SmartCube): behavioral activity signature and minimal effective dose; settings: for Potency: minimal effective dose (MED), binned: MED = dose having 50% or more total activity; for AD: ADHD (probability of activity signature) / AG: analgesic (probability of activity signature) / AX: anxiolytic (probability of activity signature) / CE: cognitive enhancer (probability of activity signature) / DP: anti-depressant (probability of activity signature) / MS: mood stabilizer (probability of activity signature) / PS: anti-psychotic (probability of activity signature) / SD: sedative hypnotic (probability of activity signature) / UN: uncharacterized CNS activity (probability of activity signature): i.p. 15 min before test, most efficacious dose(s)
In short: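 Video-recorded behavior is compared algorithmically against a reference-compound database, yielding class probabilities (best dose reported). Compounds given i.p. in NMP/PEG/propylene glycol 15 min pre-test at 3 doses; potency as MED, the dose (mpk, range usually 0.3–30) reaching ≥50% total activity.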

## N[C@H]1COCc2ccc(F)cc21 (single isomer, unassigned) [Compound 114]
[1]
  Effect on Pre-Pulse Inhibition (PPI): −
[2]
  Total Distance Traveled: −
[3]; 1 mg/kg (p.o.)
  Marbles Buried: −
[4]
  Mean Total Time Immobile: −

## N[C@@H]1COCc2ccc3ccccc3c21 (single isomer, unassigned) [Compound 117]
[1]
  Effect on Pre-Pulse Inhibition (PPI): −
[2]
  Total Distance Traveled: −
[3]; 1 mg/kg (p.o.)
  Marbles Buried: −
[4]
  Mean Total Time Immobile: −

## N[C@H]1COCc2ccc3ccccc3c21 (single isomer, unassigned) [Compound 118]
[1]
  Effect on Pre-Pulse Inhibition (PPI): −
[2]
  Total Distance Traveled: −
[3]; 3 mg/kg (p.o.)
  Marbles Buried: −
[4]
  Mean Total Time Immobile: −

## C[C@@H]1OCc2cccc(Cl)c2[C@H]1N (single isomer, unassigned) [Compound 160]
[3]; 1 mg/kg (i.p.)
  Marbles Buried: −

## CC[C@@H]1OCc2ccccc2[C@H]1N (single isomer, unassigned) [Compound 195]
[3]; 1 mg/kg (i.p.)
  Marbles Buried: −

## C[C@@H]1OCc2cccc(Cl)c2[C@H]1N (single isomer, unassigned) [Example 160]
[3]; 3 mg/kg (i.p.)
  Marbles Buried: −
[3]; 10 mg/kg (i.p.)
  Marbles Buried: +
[5]
  Potency: minimal effective dose (MED), binned: A (≤3 mpk)
  AD: ADHD (probability of activity signature): + (LOQ ≤ + <5%)
  AG: analgesic (probability of activity signature): ++ (5% ≤ ++ <25%)
  AX: anxiolytic (probability of activity signature): ++ (5% ≤ ++ <25%)
  CE: cognitive enhancer (probability of activity signature): ++ (5% ≤ ++ <25%)
  DP: anti-depressant (probability of activity signature): + (LOQ ≤ + <5%)
  MS: mood stabilizer (probability of activity signature): + (LOQ ≤ + <5%)
  PS: anti-psychotic (probability of activity signature): ++ (5% ≤ ++ <25%)
  SD: sedative hypnotic (probability of activity signature): + (LOQ ≤ + <5%)
  UN: uncharacterized CNS activity (probability of activity signature): +++ (25% ≤ +++ <50%)

## CC[C@@H]1OCc2ccccc2[C@H]1N (single isomer, unassigned) [Example 195]
[3]; 3 mg/kg (i.p.)
  Marbles Buried: −
[3]; 10 mg/kg (i.p.)
  Marbles Buried: +
[5]
  Potency: minimal effective dose (MED), binned: A (≤3 mpk)
  AD: ADHD (probability of activity signature): + (LOQ ≤ + <5%)
  AG: analgesic (probability of activity signature): ++ (5% ≤ ++ <25%)
  AX: anxiolytic (probability of activity signature): ++ (5% ≤ ++ <25%)
  CE: cognitive enhancer (probability of activity signature): ++ (5% ≤ ++ <25%)
  DP: anti-depressant (probability of activity signature): ++ (5% ≤ ++ <25%)
  MS: mood stabilizer (probability of activity signature): + (LOQ ≤ + <5%)
  PS: anti-psychotic (probability of activity signature): ++ (5% ≤ ++ <25%)
  SD: sedative hypnotic (probability of activity signature): ++ (5% ≤ ++ <25%)
  UN: uncharacterized CNS activity (probability of activity signature): ++++ (50% ≤ ++++)

## Cc1ccc2c(c1)[C@H](N)COC2 [Compound 123]
[1]
  Effect on Pre-Pulse Inhibition (PPI): −
[2]
  Total Distance Traveled: #
[3]; 3 mg/kg (p.o.)
  Marbles Buried: −
[4]
  Mean Total Time Immobile: −

## Cc1ccc2c(c1)[C@@H](N)COC2 [Compound 124]
[1]
  Effect on Pre-Pulse Inhibition (PPI): −
[2]
  Total Distance Traveled: −
[3]; 3 mg/kg (p.o.)
  Marbles Buried: −
[4]
  Mean Total Time Immobile: −
